Test results from patent US20080153882A1, “Pharmaceutical Composition Comprising Ppar Regulator” (priority 2005, published 2008).

Tested on: rat adjuvant arthritis model
Assay: Anti-arthritic action in rat adjuvant arthritis model (footpad volume increase suppression)
Format: in vivo
Conditions: female Lewis rats, oral once a day, Compound No. 1 0.1 mg/kg, Formula (II) 10.0 mg/kg; for Footpad volume increase suppression ratio (%) After 11 days: right hind leg volume on day 11 after start of administration; for Footpad volume increase suppression ratio (%) After 18 days: right hind leg volume on day 18 after start of administration
Description: A rat adjuvant arthritis model developing arthritis that is similar to human rheumatoid arthritis was used, and effect of the pharmaceutical composition according to the present invention with respect to the arthritis was evaluated by using footpad volume increase suppression rate as an indicator. Eight-week old female Lewis rats were used in the experiment.
Heat killed Mycobacterium butyricum was ground in an agate mortar, then suspended in dry heat sterilized liquid paraffin so as to have a concentration of 2 mg/ml, and treated with sonication to prepare an adjuvant.
The test compound was suspended or dissolved in a 0.5% tragacanth solution. As the test compound, the compound of Compound No. 1 described in Table 1 was used as the amino alcohol derivative, and the compound of the formula (II) was used as the PPAR regulator.
0.05 ml of the adjuvant prepared in (1) was injected subcutaneously into the footpad of right hind leg of rats, with respect to a control group and a test compound administration group. Here, 5 rats were used for each group. In addition, a normal control group was provided as a group without injection of the adjuvant.
The test compound prepared in (2) was orally administrated once a day in the amount of 5 ml/kg, […]. The control group was administered with only the 0.5% tragacanth solution in a similar manner.
After the start of administration, on day 11 and day 18, the volume of the right hind leg was measured by a leg volume measuring device, and the mean value of the swelling volume was calculated for each group.
The footpad volume increase suppression ratio (%) was calculated by the following equation, and evaluated.
Footpad volume increase suppression ratio (%)=(1-([footpad volume of test compound administration group]-[footpad volume of normal control group])/[footpad volume of control group]−[footpad volume of normal control group]))×100

| SMILES | Footpad volume increase suppression ratio (%) After 11 days [%] | Footpad volume increase suppression ratio (%) After 18 days [%] |
| --- | --- | --- |
| Cn1c(CC[C@@](C)(N)CO)ccc1C(=O)CCCCc1ccccc1 [Compound No. 1] | 43.0 | 44.8 |
| COc1ccc2nc(COc3ccc(CC4SC(=O)NC4=O)cc3)n(C)c2c1.Cl (stereo not shown) [Formula (II), 5-[4-(6-methoxy-1-methyl-1-H-benzimidazol-2-ylmethoxy)benzyl]thiazoline-2,4-dione hydrochloride] | 24.7 | 30.1 |
